From patent US20220347309A1, “PYRROLOBENZODIAZEPINE RESISTANCE” (ADC THERAPEUTICS SA, priority 2018, published 2022)
Where two headings read alike, the source gives them in different places. Values belong to the molecule of their own block, whether it stands above or below them.

Assays:
NCI-N87 PBDr cells = experiment: Drug transporter inhibitor combination growth inhibition (MTS); type: cell-based, human; conditions: for response to ADCT-502: MK-571 (5 μM) or FTC (10 μM) for 24 hours before ADC
Experimental: (§1) Cells were seeded at 10,000 cells per well in a flat bottom 96-well plate, and NCI-N87 cell were incubated overnight to allow for cell attachment.
(§2) For ADC growth inhibition assays, cells were then incubated with serial dilutions of ADCT-301 or ADCT-502 in triplicate.
(§3) Growth inhibition was measured after 96 hours in Karpas-299 cells and 144 hours in NCI-N87 cells using the CellTiter 96 AQueous One MTS Solution (Promega) and absorbance measured on a Multiskan Ascent plate reader (ThermoFisher) at 492 nm.
(§4) Growth inhibition was calculated as a percentage of absorbance compared to an untreated control, and IC50 values were calculated using the sigmoidal, 4PL, X is log(concentration) equation in GraphPad Prism.
(§5) For drug transporter inhibitor combination cytotox, the resistant cell lines were incubated overnight with either 5 μM MK-571 (ABCC2 inhibitor), 10 μM FTC (ABCG2 inhibitor), 5 μM Reversin-121 ([…]) overnight before carrying out the ADC or PBD growth inhibition assay as previously described.

NCI-N87 ADCr cells = experiment: as above; type: cell-based, human; conditions: for response to ADCT-502: MK-571 (5 μM) or FTC (10 μM) for 24 hours before ADC
Experimental: as §1, §2, §3, §4, §5

Karpas-299 ADCr cells = experiment: as above; type: cell-based, human; conditions: for re-sensitisation to ADCT-301 treatment: MK-571 (5 μM) or FTC (10 μM) for 24 hours before ADC
Experimental: (§6) The in vitro cytotoxicity assay (MTS) was carried out as previously described.
as §1, §2, §3
(§7) Growth inhibition was calculated as a percentage of absorbance compared to an untreated control, and IC50 values were calculated using the sigmoidal, 4PL, X is log(concentration) equation in GraphPad Prism. […]

Karpas-299 PBDr cells = experiment: as above; type: cell-based, human; conditions: for re-sensitisation to ADCT-301 treatment: MK-571 (5 μM) or FTC (10 μM) for 24 hours before ADC
Experimental: as §6, §1, §2, §3, §7

[1] = system: Karpas PBDr cells (SG3199 acquired resistant Karpas-299); experiment: MTS in vitro cytotoxicity, 96 h continuous exposure
Experimental: (§8) To generate a resistant population to either ADCT-301 or SG3199, human anaplastic large cell lymphoma Karpas-299 cells (expressing CD25) were incubated with an approximate IC50 dose of the drug for 96 hours. The cells were then washed and returned to fresh medium until normal cell growth was recovered. This process was repeated until a measurable and stable loss in cytotoxic efficacy was established using the MTS assay.
(§9) To measure the in vitro cytotoxicity with the MTS assay, cells were incubated with a 10-fold dilution range of ADCT-301 or SG3199, and incubated with continuous exposure for 96 hours (at least three cell doubling times under normal cell culture conditions). After incubation the […] AQueous One Solution Cell Proliferation Assay (MTS) was used to measure growth inhibition, by adding 20 μl reagent to the cells and incubating for 3-4 hours, then reading the absorbance at 492 nm. Mean % growth of the ADC or PBD treated cells was calculated relative to an untreated control.
(§10) To measure the cross-resistance of the Karpas ADCR cells to the SG3199 PBD warhead, and the PBDR cells to ADCT-301, the in vitro cytotoxicity assay was carried out as described above, treating the cells with the opposite drug molecule to the one with which they were generated.
(§11) To measure the cross-resistance of the Karpas ADCR and PBDR cells to the PBD dimer warhead SG2000, the in vitro cytotoxicity (MTS) assay was carried out as previously described in Example 2.

[2] = system: Karpas ADCr cells (ADCT-301 acquired resistant Karpas-299); experiment: as above
Experimental: as §8, §9, §10, §11

[3] = system: NCI-N87 PBDr cells (SG3199 acquired resistant); experiment: MTS in vitro cytotoxicity, 144 h continuous exposure; type: cell-based, human; conditions: for cross-resistance (MTS growth inhibition compared to the parental cell line): NCI-N87 PBDr vs parental
Experimental: (§13) To generate a resistant population to either ADCT-502 or SG3199, human gastric cancer NCI-N87 cells (expressing HER2) were incubated with an approximate IC50 dose of the drug for 144 hours. The cells were then washed and returned to fresh medium until normal cell growth was recovered. This process was repeated until a measurable and stable loss in cytotoxic efficacy was established using the MTS assay.
(§14) To measure the in vitro cytotoxicity with the MTS assay, cells were incubated with a 10-fold dilution range of ADCT-502 or SG3199, and incubated with continuous exposure for 144 hours (at least three cell doubling times under normal cell culture conditions). After incubation the CellTiter 960 AQueous One Solution Cell Proliferation Assay (MTS) was used to measure growth inhibition, by adding 20 μl reagent to the cells and incubating for 3-4 hours, then reading the absorbance at 492 nm. Mean % growth of the ADC or PBD treated cells was calculated relative to an untreated control.
(§15) To measure the cross-resistance of the NCI-N87 ADCR cells to the SG3199 PBD warhead, and the PBDR cells to ADCT-502, the in vitro cytotoxicity assay was carried out as described above, treating the cells with the opposite drug molecule to the one with which they were generated.

NCI-N87 wt cells = experiment: as above; type: cell-based, human; conditions: Homo sapiens, NCI-N87, 144 h, read-out: IC50 pM
Experimental: as §13, §14, §15

[4] = system: NCI-N87 ADCr cells (ADCT-502 acquired resistant); experiment: as above; type: cell-based, human; conditions: for cross-resistance (MTS growth inhibition compared to the parental cell line): NCI-N87 ADCr vs parental
Experimental: as §13, §14, §15

Karpas-299 wt cells = experiment: MTS in vitro cytotoxicity, 96 h continuous exposure; type: cell-based; conditions: Homo sapiens, KARPAS-299, read-out: IC50 nM
Experimental: To measure the in vitro cytotoxicity with the MTS assay, cells were incubated with a 10-fold dilution range of ADCT-301 or SG3199, and incubated with continuous exposure for 96 hours (at least three cell doubling times under normal cell culture conditions). After incubation the CellTiter 960 AQueous One Solution Cell Proliferation Assay (MTS) was used to measure growth inhibition, by adding 20 μl reagent to the cells and incubating for 3-4 hours, then reading the absorbance at 492 nm. Mean % growth of the ADC or PBD treated cells was calculated relative to an untreated control.

[5] = target: T1, CD25 on Karpas-299 PBDR cells (Homo sapiens, UniProt P01589); experiment: CD25 antibody binding, flow cytometry; conditions: Karpas-299 PBDR vs wt, 1 hour on ice
T1 construct: endogenous in cells; host or cells: Karpas-299 acquired-resistant sublines (ADCR: selected with ADCT-301; PBDR: selected with SG3199)
T1 sequence (P01589 22-272): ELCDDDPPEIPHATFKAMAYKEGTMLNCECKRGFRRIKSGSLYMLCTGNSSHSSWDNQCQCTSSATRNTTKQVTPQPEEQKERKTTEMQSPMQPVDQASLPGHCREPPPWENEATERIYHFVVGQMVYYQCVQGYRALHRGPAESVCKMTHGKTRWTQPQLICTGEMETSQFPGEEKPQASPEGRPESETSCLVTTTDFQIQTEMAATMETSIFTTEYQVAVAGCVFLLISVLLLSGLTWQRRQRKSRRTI
Experimental: (§12) Karpas wt and acquired resistant cells were blocked at 4° C. for 30 mins before being incubated with a serial dilution series of HuMax-TAC mAb for 1 hour on ice. The cells were then washed and incubated with a F(ab′)2-Goat anti-Human IgG Fc Secondary Antibody conjugated to Alexa Fluor 488. After incubation for 1 hour on ice in the dark the cells were washed and run on a Fortessa X20 flow cytometer, and the mean fluorescence intensity (MFI) determined using the B530/30 laser/filter. […] In NCI-N87 cell lines there was a small decrease in MFI reached by the PBDr cell line, but the ADCr cell line was unchanged compared to the parental line (data not shown). However all cells continued to express high levels of antigen.

[6] = target: T2, CD25 on Karpas-299 ADCR cells (Homo sapiens, UniProt P01589); experiment: CD25 antibody binding, flow cytometry; conditions: Karpas-299 ADCR vs wt, 1 hour on ice
T2 construct: endogenous in cells; host or cells: Karpas-299 acquired-resistant sublines (ADCR: selected with ADCT-301; PBDR: selected with SG3199)
T2 sequence (P01589 22-272): T1 sequence (P01589 22-272)
Experimental: as §12

[7] = Homo sapiens, KARPAS-299, read-out: IC50 nM
[8] = Homo sapiens, NCI-N87, 144 h, read-out: IC50 pM

Molecule: COc1ccc2c3c([nH]c2c1)[C@H](C=C(C)C)N1C(=O)[C@@H]2CCCN2C(=O)[C@@H]1C3 [FTC, Fumitremorgin C]
response to ADCT-502 (NCI-N87 PBDr cells): restored to the level of the parental cell line
response to ADCT-502 (NCI-N87 ADCr cells): restored to the level of the parental cell line
re-sensitisation to ADCT-301 treatment (Karpas-299 ADCr cells; Karpas-299 ADCr): dramatic re-sensitisation
re-sensitisation to ADCT-301 treatment (Karpas-299 PBDr cells; Karpas-299 PBDr): dramatic re-sensitisation

Molecule: C=C1C[C@H]2C=Nc3cc(OCCCOc4cc5c(cc4OC)C(=O)N4CC(=C)C[C@H]4C=N5)c(OC)cc3C(=O)N2C1 [SG2000]
IC50 [1, 7]: 4.7 nM
fold resistance compared to wildtype ([1]; Karpas PBDr vs Karpas wt IC50): 5.2 fold
IC50 [2, 7]: 2.8 nM
fold resistance compared to wildtype ([2]; Karpas ADCr vs Karpas wt IC50): 3.1 fold
IC50 [3, 8]: 493 pM
fold resistance compared to wildtype ([3]; NCI-N87 PBDr vs NCI-N87 wt IC50): 7.7 fold
IC50 (NCI-N87 wt cells): 64 pM
IC50 [4, 8]: 483 pM
fold resistance compared to wildtype ([4]; NCI-N87 ADCr vs NCI-N87 wt IC50): 7.5 fold
IC50 (Karpas-299 wt cells): 0.9 nM

MFI of antibody binding compared to wildtype [5]: identical to wildtype cells
peak MFI of antibody binding compared to wildtype [6]: small decrease in peak MFI
Molecule: HuMax-TAC: fully human monoclonal IgG1,K antibody, VH SEQ ID NO. 1 and VL SEQ ID NO. 2; binds CD25

Molecule: CN(C)C(=O)CCSC(SCCC(=O)[O-])c1cccc(/C=C/c2ccc3ccc(Cl)cc3n2)c1.[Na+] (stereo not drawn) [MK-571]
response to ADCT-502 (NCI-N87 PBDr cells): restored to the level of the parental cell line
response to ADCT-502 (NCI-N87 ADCr cells): restored to the level of the parental cell line
reversal of acquired resistance to ADCT-301 (Karpas-299 ADCr cells; Karpas ADCr, 50 μM MK-571, 96-hour continuous exposure to ADCT-301): partially reverse the resistance
re-sensitisation to ADCT-301 treatment (Karpas-299 ADCr cells; Karpas-299 ADCr): dramatic re-sensitisation
reversal of acquired resistance to ADCT-301 (Karpas-299 PBDr cells; Karpas PBDr, 50 μM MK-571, 96-hour continuous exposure to ADCT-301): partially reverse the resistance
re-sensitisation to ADCT-301 treatment (Karpas-299 PBDr cells; Karpas-299 PBDr): dramatic re-sensitisation

Molecule: N.N.[Cl][Pt][Cl] [cisplatin]
cross-resistance (MTS growth inhibition compared to the parental cell line) [3]: decrease in growth inhibition
cross-resistance (MTS growth inhibition compared to the parental cell line) [4]: decrease in growth inhibition

Molecule: CC[C@H](C)C(=O)O[C@H]1C[C@@H](C)C=C2C=C[C@H](C)[C@H](CC[C@@H]3C[C@@H](O)CC(=O)O3)[C@H]21 [Lovastatin]
reversal of resistance by SLCO2B1 inhibitor (NCI-N87 PBDr cells; 5 μM Lovastatin with ADCT-502): failed to reverse the resistance
reversal of resistance by SLCO2B1 inhibitor (NCI-N87 ADCr cells; 5 μM Lovastatin with ADCT-502): failed to reverse the resistance
reversal of resistance by SLCO2B1 inhibitor (Karpas-299 ADCr cells; Karpas-299 ADCr, 10 nM Lovastatin with ADCT-301): failed to reverse the resistance
reversal of resistance by SLCO2B1 inhibitor (Karpas-299 PBDr cells; Karpas-299 PBDr, 10 nM Lovastatin with ADCT-301): failed to reverse the resistance

Molecule: N[C@@H](Cc1ccc(N(CCCl)CCCl)cc1)C(=O)O [melphalan]
cross-resistance (MTS cytotoxic sensitivity compared to wt cells) ([1]; Karpas PBDr vs wt/parental): No cross-resistance
cross-resistance (MTS cytotoxic sensitivity compared to wt cells) ([2]; Karpas ADCr vs wt/parental): No cross-resistance
cross-resistance (MTS growth inhibition compared to the parental cell line) [3]: decrease in growth inhibition
cross-resistance (MTS growth inhibition compared to the parental cell line) [4]: decrease in growth inhibition

Molecule: COc1cccc2c1C(=O)c1c(O)c3c(c(O)c1C2=O)C[C@@](O)(C(=O)CO)C[C@@H]3O[C@H]1C[C@H](N)[C@H](O)[C@H](C)O1 [doxorubicin]
cross-resistance (MTS cytotoxic sensitivity compared to wt cells) [1]: No cross-resistance
cross-resistance (MTS cytotoxic sensitivity compared to wt cells) [2]: No cross-resistance
cross-resistance (MTS growth inhibition compared to the parental cell line) [3]: decrease in growth inhibition
cross-resistance (MTS growth inhibition compared to the parental cell line) [4]: decrease in growth inhibition
